In US20250332167A1, “PHARMACEUTICAL USE OF CDK 4/6 INHIBITOR” (priority 2021, published 2025):
Several values for one entry are separate records, joined by “and”; a condition that tells them apart may be missing. Equal entries are not always repeated.

Tests used:
NCI-H358 = assay: Proliferation inhibition, non-small cell lung cancer cell line NCI-H358; assay type: cell-based; conditions: Homo sapiens, NCI-H358, 72 h
Description: (§1) Sixteen non-small cell lung cancer cell lines, including NCI-H1792, NCI-H1703, NCI-H441, SNU-761, NCI-H1975, NCI-H358, NCI-H1838, NCI-H1915, A549, SK-MES-1, NCI-H292, PC-9, NCI-H460, NCI-H23, NCI-H1581, and HLF, were used for the proliferation inhibition assay of the present invention compound. […] The cell detection equipment used was In Cell Analyzer 2200 (GE Healthcare).
(§2) With 60 μM as the initial concentration, ten points were obtained by serial five-fold dilution.
(§3) Each kind of cell in logarithmic growth phase was inoculated with 4000 cells/100 μl/well into a black transparent bottom 96-well plate and cultured overnight at 37° C. The next day, the plate was taken out, and 20 μL of the prepared sample dilutions was added to each well. The plate was then subjected to treatment at 37° C. for 72 hours. After the treatment period of 72 hours, the plate was taken out and 50 μL of neutral formaldehyde fixative (formaldehyde: PBS=1:9, 50 μl/well) was added to each well. The plate was then fixed at room temperature for 10-30 minutes. Subsequently, the wells were washed twice with 1× PBS (100 μl/well) and treated with 0.2% Triton™-X100 for 5-10 minutes to permeabilize the cells. […] The inhibitory rates of each compound at different concentration points were calculated by using the following formula, and IC50 values were obtained through curve fitting using GraphPad Prism 6.0 software.

NCI-H1703 = assay: Proliferation inhibition, non-small cell lung cancer cell line NCI-H1703; assay type: cell-based; conditions: Homo sapiens, NCI-H1703, 72 h
Description: as §1, §2, §3

NCI-H1792 = assay: Proliferation inhibition, non-small cell lung cancer cell line NCI-H1792; assay type: cell-based; conditions: Homo sapiens, NCI-H1792, 72 h
Description: as §1, §2, §3

NCI-H441 = assay: Proliferation inhibition, non-small cell lung cancer cell line NCI-H441; assay type: cell-based; conditions: Homo sapiens, NCI-H441, 72 h
Description: as §1, §2, §3

U118MG cells = assay: Proliferation inhibition of human glioblastoma cells U118MG (DAPI cell count, 72 h); assay type: cell-based; conditions: U-118-MG, 72 h treatment
Description: Human glioblastoma cell U118MG was purchased from NANJING COBIOER BIOSCIENCES CO., LTD. […] The cell detection equipment used was the In Cell Analyzer 2200 (GE Healthcare).
as §2
Medium for U118 MG is the MEM (low glucose) medium supplemented with 10% FBS, 1% penicillin/streptomycin, 1% sodium pyruvate, and 1% MEM NEAA. U118 MG cells were seeded at a density of 4000 cells/100 μL/well in a 96-well black clear-bottom plate and incubated at 37° C. overnight. The plate was then taken, and 20 μL of the prepared diluted samples was added to the wells. The cells were treated at 37° C. for 72 hours. After 72 hours, the plate was taken, and a neutral formaldehyde fixation solution (formaldehyde:PBS=1:9) was added at 50 μL/well. The cells were fixed at room temperature for 10-30 minutes. The wells were washed twice with 1× PBS (100 μL/well), and then permeabilized with 0.2% Triton™-X100 for 5-10 minutes (100 μL/well). […] The plate was scanned by using an In Cell Analyzer, and the number of cells in each well was analyzed. The inhibition rate of each compound at various concentration points was calculated by using the formula provided. The IC50 values were determined by curve fitting using GraphPad Prism 6.0 software.

[1] = system: Human glioblastoma model (BN2289); assay: Human glioblastoma xenograft mouse model (BN2289); assay type: in vivo, BALB/C nude mice; conditions: 25 mg/kg oral gavage once daily, day 21
Excerpt: Human glioblastoma model (BN2289, Crown Bioscience Co., Ltd.) tumor fragments were cut into small pieces with a diameter of 2-3 mm and subcutaneously inoculated into the right side of BALB/C nude mice. Tumor growth was monitored regularly, and when the tumors grew to an average volume of approximately 100-200 mm^3, mice were randomly divided into groups based on the tumor size.
Each group consisted of 8 mice and received oral gavage administration once daily for a total of 28 days. Regular observations were made on tumor volume and changes in body weight. Efficacy evaluation was conducted based on the relative tumor growth rate (T/C) and the relative tumor inhibition rate (TGI).
(§4) The formula for calculating tumor volume was: Tumor Volume (mm^3)=½×(a×b^2) (where “a” represents the long diameter and “b” represents the short diameter).
(§5) The relative tumor growth rate (T/C) is the percentage value of the relative tumor volume or weight between the treatment group and the control group at a certain time point. The calculation formula is as follows: • T/C(%)=TRTV/CRTV×100% (TRTV: Average RTV of the treatment group; CRTV: Average RTV of the Vehicle group; RTV=Vt/V0, where V0 is the tumor volume of the animal at the time of grouping and Vt is the tumor volume of the animal after treatment).
(§6) (T and C are the relative tumor volume (RTV) or weight (TW) of the treatment group and control group at a specific time point, respectively).

NCI-H1975 xenograft = assay: Human non-small cell lung cancer NCI-H1975 xenograft mouse model; assay type: in vivo, Balb/c nude mice; conditions: 25 mg/kg oral gavage once daily
Excerpt: as §4, §5, §6
NCI-H1975 cells were cultured in RPMI1640 medium containing 10% fetal bovine serum. Log-phase NCI-H1975 cells were collected, suspended in PBS to an appropriate concentration, and used for subcutaneous tumor implantation in Balb/c nude mice. Each female mouse was implanted with 0.1 ml of NCI-H1975 cells subcutaneously. When the average tumor volume reached 171 mm^3, the mice were randomly divided into groups based on tumor size.
The positive control drugs were Palbociclib and Abemaciclib.
Each group consisted of 8 mice, and oral gavage administration was performed once daily for a total of 21 days. Tumor volume and body weight changes were observed regularly, and efficacy evaluation was conducted based on relative tumor proliferation rate (T/C) and relative tumor growth inhibition rate (TGI). The calculation methods for tumor volume, T/C, and TGI are described in Example 3.

SNU-761 = assay: Proliferation inhibition, non-small cell lung cancer cell line SNU-761; assay type: cell-based; conditions: Homo sapiens; SNU-761, 72 h
Description: as §1, §2, §3

NCI-H1838 = assay: Proliferation inhibition, non-small cell lung cancer cell line NCI-H1838; assay type: cell-based; conditions: Homo sapiens, NCI-H1838, 72 h
Description: as §1, §2, §3

SMILES	IC50 (NCI-H358) [nM]	IC50 (NCI-H1703) [nM]	IC50 (NCI-H1792) [nM]	IC50 (NCI-H441) [nM]	IC50 (U118MG cells) [nM]	Day 21 Tumor Volume [1] [mm^3]	T/C (NCI-H1975 xenograft; 16 days after administration) [%]	TGI (NCI-H1975 xenograft; 16 days after administration) [%]	Tumor volume (x ± S) (NCI-H1975 xenograft; 16 days after administration)	IC50 (SNU-761) [nM]	IC50 (NCI-H1838) [nM]	Relative Average Tumor Volume [1]	T/C (relative tumor growth rate) [1] [%]	TGI (relative tumor inhibition rate) [1] [%]	Tumor relative volume (x ± S) (NCI-H1975 xenograft; 16 days after administration)	Body weight change (NCI-H1975 xenograft; Day 20 of treatment)
CCN1CCN(Cc2ccc(Nc3ncc(F)c(-c4cc(F)c5nc(C)n(C(C)C)c5c4)n3)nc2)CC1 [Abemaciclib, reference compound]	44	93	23	40	86 ± 22.9	1627.31 ± 100.66	93	7	2071 mm^3 and 2071 ± 148 mm^3	54	90.2	–	–	–	–	–
CC(=O)c1c(C)c2cnc(Nc3ccc(N4CCNCC4)cn3)nc2n(C2CCCC2)c1=O [Palbociclib, reference compound]	–	–	–	–	–	1417.98 ± 121.86	66	34	1469 mm^3 and 1469 ± 146 mm^3	–	–	9.58	66.01	33.99	7.7 ± 1.0	slight decrease in body weight
